Reference: US10117866B2, “Promoting axon regeneration in the adult CNS through control of protein translation” (CHILDREN'S MEDICAL CENTER CORPORATION, priority 2008, dated 2018)

Target: PTEN (Homo sapiens, UniProt P60484)
Experiment: PTEN inhibition assay (malachite green phosphate release), IC50 determination
Assay type: biochemical
Details: not given
Experimental: PTEN inhibitors are evaluated in an inhibition assay conducted in half-volume 96 well plates in 25 ul total volume per well containing 2 mM dithiothreitol (DTT) and 0.1 mM Tris buffer, pH 8.0 and up to 3 ug total protein of PTEN. Small volumes of the test inhibitor candidates (stock concentrated solutions of 25 mM in DMSO) are mixed with the PTEN solution at room temperature for about 10 minutes and then substrate is added. The reaction mix is then incubated in 37° C. for 20 minutes. Subsequent to this a 100 ul aliquot of malachite green buffer (Upstate, Charlottesville, Va.) is added to develop the color in the dark at room temperature (this solution also stops the dephosphorylation reaction). A SpectraMax Plus spectrophotometric plate reader (Molecular Devices, Sunnyvale, Calif.) is used to measure the optical density at 650 nanometers. […]
To determine the dose response of potential PTEN inhibitors, doses of test compounds ranging from 1 nM to 250 uM (final reaction mix concentrations) are evaluated in the general PTEN inhibition assay (supra). […] Once the concentration range is determined, at which PTEN activity changes dramatically, two additional concentration data points within this range are added and the PTEN inhibition assay is then rerun for the second round. […]

Chain of PTEN (P60484 whole entry, species assumed): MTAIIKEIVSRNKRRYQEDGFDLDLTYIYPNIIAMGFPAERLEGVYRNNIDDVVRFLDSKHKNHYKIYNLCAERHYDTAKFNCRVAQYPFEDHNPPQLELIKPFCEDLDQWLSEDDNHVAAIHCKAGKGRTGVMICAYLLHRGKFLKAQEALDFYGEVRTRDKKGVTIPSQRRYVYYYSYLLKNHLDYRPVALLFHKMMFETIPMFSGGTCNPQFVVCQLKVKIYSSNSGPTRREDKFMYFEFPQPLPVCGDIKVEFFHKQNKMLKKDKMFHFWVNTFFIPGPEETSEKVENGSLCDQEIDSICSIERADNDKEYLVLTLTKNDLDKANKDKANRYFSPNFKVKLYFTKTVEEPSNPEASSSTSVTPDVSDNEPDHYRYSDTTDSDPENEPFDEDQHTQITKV

| Molecule | IC50 |
| --- | --- |
| CC(C)(C)C(=O)Nc1cnc2c(c1)C(=O)C(=O)c1cccnc1-2 | 2000 nM |
| O=C(COc1ccccc1)Nc1cnc2c(c1)C(=O)C(=O)c1cccnc1-2 | 300 nM |

Tested on: dorsal corticospinal tract (CST) axons
Experiment: Spinal injury (dorsal corticospinal tract transection) in rats, intrathecal or intravenous PTEN inhibitor
Assay type: in vivo, Sprague Dawley rats
Details: intrathecal or intravenous administration, rat spinal injury model
Source text: Methodology for this animal study was adapted from Nash et al (J. Neurosci (2002) 22:7111-7120), Luo et al (Molecular Pain (2005) 1:29), and Obata et al (J. Neurosci. (2004) 24:10211-22).
Adult Sprague Dawley rats ([…]) are trained and tested in a directed forepaw reaching (DFR) apparatus which measures grasping ability. The apparatus, which is described in detail by Nash et al., supra, is a box that consists of two compartments: a main compartment for housing the rats and a minor compartment for the food, separated by a PLEXIGLAS™ divider. The minor compartment is subdivided into slots of equal size, each holding a pellet of food. Between the slots and the PLEXIGLAS™ there is a gap. The apparatus is configured such that in order to retrieve a food pellet from a slot, a rat must extend a forelimb through a hole in the PLEXIGLAS™ divider, and grasp the pellet and lift it over the gap and out of the slot. If the rat merely rakes the food in the slot towards the hole in the PLEXIGLAS™, the food will drop from the slot into the gap and fall to the floor of the minor compartment. The floor of the minor compartment can be configured to allow a rat to retrieve food that drops or it can be lowered to prevent the rat from reaching dropped food. Prior to inducing spinal injury, the rats are food restricted, receiving ˜[…] body weight per day, before and throughout training and testing. Weight is monitored to ensure that rats are reduced to no less than 80% of their original body weight at any time. All rats are given shaping periods for 2-3 d in the box to allow them to learn the task while they become familiar with the testing situation. Animals are trained twice per day for 5 d and then tested twice per day for 5 d, and presurgical DFR data is collected. During the testing period, rats are given 5 min to complete the task and are allowed to make as many attempts as they want during this time period. Rats are required to return to at least 95% of their original weight to ensure that they are healthy before undergoing surgery.
Rats are randomly assigned to control or experimental groups. Sham control rats undergo surgical procedure without lesioning, and with or without placement of a mini osmotic pump (Alzet type 2001; Durect, Cupertino, Calif.). Lesioned control rats receive no treatment, tail vein injection with vehicle only treatment, insertion of a mini osmotic pump only treatment, or insertion of a mini osmotic pump with vehicle only treatment. After anesthesia with isoflurane, the rats are placed on an operating board in such a way as to bend the cervical spinal cord for maximum exposure. A laminectomy is performed exposing the dorsum of the spinal cord between C2 and C4. […]

| Molecule | axonal regeneration after spinal injury |
| --- | --- |
| O.O.O.OO.OO.[K+].[OH-].[V].c1cnc2c(c1)ccc1cccnc12 [bpV(phen), potassium bisperoxo(1,10-phenanthroline)oxovanadate (V)] | can be promoted |
| O.O.O=C([O-])c1ccccn1.OO.OO.[K+].[K+].[OH-].[V] [bpV(pic), dipotassium bisperoxo(picolinato)oxovanadate (V)] | can be promoted |
| potassium bisperoxo(bipyridine)oxovanadate (V) [bpV(bipy)] | can be promoted |
| dipotassium bisperoxo(5-hydroxypyridine-2-carboxyl)oxovanadate (V) [bpV(HOpic)] | can be promoted |
